Measurements published in ChEMBL document CHEMBL3734730, “Discovery of novel 2-benzylisoquinolin-1(2H)-ones as potent vasodilative agents” (Bioorg Med Chem Lett, 2015).
Active and inactive are the calls of the source. The calls are words filed in the database; no cut-off is given here.

Legend:
[1] = Vasodilative activity in isolated Sprague-Dawley rat Superior mesenteric arterial ring assessed as reduction in KCl-induced contraction at 10^-5 by wire myograph method; format: functional; parameters: scale not given: the % may be the effect or the level left
[2] = Vasodilative activity in isolated Sprague-Dawley rat Superior mesenteric arterial ring assessed as reduction in KCl-induced contraction by wire myograph method relative to control; format: functional
[3] = test system: Rattus norvegicus; assay: Antihypertensive activity in SHR rat assessed as reduced diastolic pressure at 4 mg/kg, po after 2 hrs by tail-cuff plethysmography (reference value: 2 mmHg); format: functional, Blood
[4] = test system: Rattus norvegicus; assay: Antihypertensive activity in SHR rat assessed as reduced systolic pressure at 2 mg/kg, po after 2 hrs by tail-cuff plethysmography (reference value: 2 mmHg); format: functional, Blood
[5] = test system: Rattus norvegicus; assay: Antihypertensive activity in SHR rat assessed as reduced diastolic pressure at 8 mg/kg, po after 2 hrs by tail-cuff plethysmography (reference value: 2 mmHg); format: functional, Blood
[6] = test system: Rattus norvegicus; assay: Antihypertensive activity in po-dosed SHR rat assessed as reduced diastolic pressure after 2 hrs by tail-cuff plethysmography; format: functional, organism-based; conditions: Blood
[7] = test system: Rattus norvegicus; assay: Antihypertensive activity in SHR rat assessed as reduced systolic pressure at 1 mg/kg, po after 2 hrs by tail-cuff plethysmography (reference value: 2 mmHg); format: functional, Blood
[8] = test system: Rattus norvegicus; assay: Antihypertensive activity in SHR rat assessed as reduced diastolic pressure at 1 mg/kg, po after 2 hrs by tail-cuff plethysmography (reference value: 2 mmHg); format: functional, Blood
[9] = Vasodilative activity in isolated Sprague-Dawley rat mesenteric arterial ring assessed as reduction in phenylephrine-induced contraction at 10 uM pretreated for 30 mins followed by addition of 10^-8 to 10^-4 M phenylephrine by wire myograph method relative to control; format: functional; conditions: Mesenteric artery
[10] = test system: Rattus norvegicus; assay: Antihypertensive activity in po-dosed SHR rat assessed as reduced systolic pressure after 2 hrs by tail-cuff plethysmography; format: functional, organism-based; conditions: Blood
[11] = test system: Rattus norvegicus; assay: Antihypertensive activity in SHR rat assessed as reduced systolic pressure at 8 mg/kg, po after 2 hrs by tail-cuff plethysmography (reference value: 2 mmHg); format: functional, Blood
[12] = test system: Rattus norvegicus; assay: Antihypertensive activity in SHR rat assessed as reduced systolic pressure at 4 mg/kg, po after 2 hrs by tail-cuff plethysmography (reference value: 2 mmHg); format: functional, Blood
[13] = test system: Rattus norvegicus; assay: Antihypertensive activity in SHR rat assessed as reduced diastolic pressure at 2 mg/kg, po after 2 hrs by tail-cuff plethysmography (reference value: 2 mmHg); format: functional, Blood

Compound	Activity [1]	EC50 [2]	Rmax [2]	also measured
COc1ccc2c(=O)n(Cc3cc(OC)c(OC)c(OC)c3)ccc2c1	72%	2000 nM	84%	
COc1cc2ccn(Cc3cccc([N+](=O)[O-])c3)c(=O)c2cc1OC	57.4%	2000 nM	67.4%	
O=c1c2ccc(O)cc2ccn1Cc1ccccc1	64.3%	3160 nM	74.2%	
COc1ccc2c(=O)n(Cc3ccc(OCc4ccc(F)cc4)c(OC)c3)ccc2c1	82.4%	398 nM	94.3%	
COc1cc2ccn(Cc3ccccc3)c(=O)c2cc1OC	42.3%			
COc1cc2ccn(Cc3ccc(Cl)c(Cl)c3)c(=O)c2cc1OC	26.6%			
COc1cc(OC)c2c(=O)n(Cc3ccc(OCc4ccc(F)cc4)c(OC)c3)ccc2c1	74.1%	501 nM	75.3%	
COc1cc(OC)c2c(=O)n(Cc3ccc(OC)c(OC)c3)ccc2c1	66.8%	1000 nM	76.4%	
O=c1c2cc(O)ccc2ccn1Cc1ccccc1	48.5%	25100 nM	60.6%	
COc1cccc2ccn(Cc3ccccc3)c(=O)c12	63.2%	2510 nM	71.3%	
COc1cc2ccn(Cc3cccc(N)c3)c(=O)c2cc1OC	51%	5010 nM	52.3%	
COc1cc(Cn2ccc3cccc(OC)c3c2=O)cc(OC)c1OC	93.8%	251 nM	98.7%	Activity [3]: 39 mmHg; Activity [4]: 15 mmHg; Activity [5]: 49 mmHg; inhibition [6]: Dose-dependent effect; Activity [7]: 3 mmHg; Activity [8]: 1 mmHg; inhibition [9]: Active; inhibition [10]: Dose-dependent effect; Activity [11]: 44 mmHg; Activity [12]: 34 mmHg; Activity [13]: 12 mmHg
COc1ccc(Cn2ccc3cc(OC)ccc3c2=O)cc1	83.7%	794 nM	90.8%	
